# Laboratory results reported in patent publication US11793824B2, “Administration of nicotinamide mononucleotide in the treatment of disease” (Washington University, priority 2013, dated 2023).
# Test system: Nampt Ad-Cre infected NSPCs
# Assay: Nampt Ad-Cre infected neurospheres with or without NMN: NAD+, proliferation, differentiation
# Format: cell-based, mouse
# Experimental: NAD+ levels were determined using an HPLC system (Shimadzu) with a Supelco LC-18-T column (15 cm×[…]; Sigma), as described previously (Yoshino et al, 2011).
# Neurospheres derived from Nampt^flox/flox mice were infected with Ad5 Cre recombinase- or b-galactosidase-expressing (LacZ, control) adenoviruses at an MOI of 100. All assessments were performed at least 6 days post infection.
# Neurospheres derived from Nampt^flox/flox mice were dissociated by trypsin digestion and seeded at similar cell densities in 24-well plates with fresh growth medium. Every 24 hours, neurospheres from triplicate wells were collected, dissociated, and counted on a hemocytometer using 0.2% trypan blue exclusion to distinguish viable cells. For analysis of neurosphere diameter, the largest neurosphere in each well was imaged (20× objective) and the diameter was calculated using ImageJ. For secondary neurosphere analysis, the total number of neurospheres in each well was counted at 7 days post-plating.
# Three to five days after their first passage, neurospheres were trypsinized, washed with dissociation medium, and plated at 150,000 cells per well in 24-well plates in differentiation medium [growth medium without FGF and EGF and with BDNF (5 ng/mL, Peprotech, 450-02) on glass coverslips coated with poly-D-lysine (50 ug/mL; Sigma) and laminin (20 ug/mL; BD Biosciences)]. 6-well plates were coated with poly-D-lysine (20 ug/mL) and laminin (10 ug/mL). […] The percentage of oligodendrocyte precursor cells (OPCs) generated was analyzed after 2 d of differentiation, and the percentage of differentiated oligodendrocytes was analyzed after 6-7 d of differentiation. […]
# Nampt Ad-Cre NSPCs were unable to increase their cell number between 24 and 144 hours of culture. […] Since NSPC self-renewal decisions can also contribute to cell number, the inventors assessed secondary neurosphere formation, an assay that quantifies the ability of neurosphere inhabitant cells to reformulate neurospheres upon dissociation. […]
smiles,measurement,setting,value
"NC(=O)c1ccc[n+]([C@@H]2O[C@H](COP(=O)([O-])O)[C@@H](O)[C@H]2O)c1 [NMN, nicotinamide mononucleotide]",rescue of reduction in NAD+ levels in Nampt Ad-Cre NSPCs,"NMN 100 μM, 48 hours, eight days post deletion",rescued
same,proliferative potential of Nampt Ad-Cre cells,NMN 200 μM,fully reactivate
same,"defects in differentiation (oligodendrogenesis, Nestin+ retention) of Nampt Ad-Cre NSPCs","treatment with NMN, 6-7 days of differentiation",rescued defects in oligodendrogenesis
